From publication PMC9479156 (Frontiers in Pharmacology, 2022)
Like-named read-outs stand apart in the source and are kept apart here. Marks after values point to notes of the source that are not given here.

Legend:
[1] = test system: asexual blood stage P. falciparum K1 (multidrug resistant); settings: ref Coertzen et al., 2018, Wong et al., 2019, cited from earlier work
[2] = test system: immature stage II-III P. falciparum NF54 gametocytes; design: method as in Coertzen et al., 2018, Wong et al., 2019; settings: ref Coertzen et al., 2018, Wong et al., 2019, cited from earlier work
[3] = test system: asexual blood stage P. falciparum NF54 (drug sensitive); design: method as in Coertzen et al., 2018; Wong et al., 2019; settings: SYBR Green I, mean ± SEM, ref Coertzen et al., 2018, Wong et al., 2019; cited from earlier work
tumour cell lines = test system: tumour cell lines; design: method as in earlier work; settings: range over cell lines; ref Gravett et al., 2011; Hooft van Huijsduijnen et al., 2013; Dwivedi et al., 2015; Wu et al., 2018; Wong et al., 2020; read-out: IC50 against tumour cell lines; cited from earlier work
A375 melanoma cells = test system: A375 melanoma cells; design: method as in Wong et al., 2020; settings: ref Wong et al., 2020; cited from earlier work
[4] = test system: multidrug resistant Pf K1 strain; settings: tritiated hypoxanthine assay; ref Figueiredo et al., 1998; Li et al., 2019; cited from earlier work
[5] = test system: drug-sensitive and resistant asexual blood stage Pf; assay: Asexual blood stage activity over all strains (abstract); type: cell-based; settings: Plasmodium falciparum, read-out: IC50 asexual blood stage Pf
Protocol: DHA, artesunate, artemether, chloroquine (CQ), and methylene blue (MB) were used as reference drugs. All assay conditions are as previously described ([Coertzen et al., 2018]; [Wong et al., 2019]). Compound working solutions were prepared from a 10 mM stock solution in 100% (v/v) dimethyl sulfoxide (DMSO; Sigma-Aldrich) in AlbuMAX II supplemented RPMI 1640 medium with a final DMSO concentration of 0.1% (v/v), shown to be nontoxic […] to intraerythrocytic asexual blood stage parasites ([Coertzen et al., 2018]). Dose-responses were determined using a 2-fold serial drug dilution on in vitro 95% ring-stage intraerythrocytic Pf parasites (1% parasitemia, 1% hematocrit) at 37°C under 90% N2, 5% CO2, and 5% O2 atmospheric conditions, detecting SYBR green I fluorescence as a marker for parasite proliferation following a 96 h drug treatment ([Smilkstein et al., 2004]; [Verlinden et al., 2011]). Activity against the Pf drug-sensitive NF54 strain and the multi drug-resistant K1 (resistant to CQ, quinine, pyrimethamine, and cycloguanil), and W2 (resistant to CQ, quinine, pyrimethamine, and cycloguanil) strains was evaluated. […] Data analysis was performed using GraphPad Prism (version 6) software, intra-assay variability was monitored with Z-factors, and acceptable inter-assay reproducibility was determined from the percent coefficient of variation (CV) ([Reader et al., 2015]). […]

[6] = test system: late stage IV-V P. falciparum NF54 gametocytes; assay: Luciferase reporter gametocytocidal assay, late stage gametocytes; type: cell-based, Plasmodium falciparum; settings: for IC50: Plasmodium falciparum; for Fold change preference ratio LG to EG: late vs immature stage gametocytes
Protocol: (§1) In vitro cultivation of asexual and gametocyte P. falciparum parasites: P. falciparum asexual blood stage parasites were cultivated in human erythrocytes in RPMI-1640 media supplemented with AlbuMax II under sterile conditions and in a hypoxic environment (90% N2, 5% CO2, and 5% O2) at 37°C as described previously ([Coertzen et al., 2018]; [Wong et al., 2019]). Gametocytes were produced from asexual blood stage parasites in a stage-specific manner through induction of cellular stress as described previously ([Reader et al., 2015]; [Coertzen et al., 2018]; [Wong et al., 2019]; [Reader et al., 2022]).
Untreated and 5 μM MB-treated immature and late-stage gametocytes were included as positive and negative controls. MB and artemisone were included as internal reference standards. In all cases, an interference assay to eliminate false positives from possible compound interference with the luciferase readout was run in parallel. Unless otherwise indicated, data are from technical triplicates, performed for three biological replicates. Complete dose-response curves are given in the (Supplementary Figures S2A,B).
(§2) Stage-specific activities of celastrol against immature (stage II-III) and late stage (stage IV-V) gametocytes were determined with the luc reporter line as described previously ([Coertzen et al., 2018]; [Wong et al., 2019]). Also included in Table 2 for direct comparison of activities with celastrol are gametocytocidal data for MB, artemisone and the artemisinin derivatives recorded previously ([Coertzen et al., 2018]; [Wong et al., 2019]).

[7] = test system: chloroquine sensitive Pf NF54 strain; settings: tritiated hypoxanthine assay; ref Figueiredo et al., 1998; Li et al., 2019; cited from earlier work
[8] = test system: asexual blood stage P. falciparum K1 (multidrug resistant); assay: SYBR Green I proliferation assay, asexual blood stage Pf K1; type: cell-based, Plasmodium falciparum
Protocol: as §1
(§3) DHA, artesunate, artemether, chloroquine (CQ), and methylene blue (MB) were used as reference drugs. […] Dose-responses were determined using a 2-fold serial drug dilution on in vitro 95% ring-stage intraerythrocytic Pf parasites (1% parasitemia, 1% hematocrit) at 37°C under 90% N2, 5% CO2, and 5% O2 atmospheric conditions, detecting SYBR green I fluorescence as a marker for parasite proliferation following a 96 h drug treatment ([Smilkstein et al., 2004]; [Verlinden et al., 2011]). Activity against the Pf drug-sensitive NF54 strain and the multi drug-resistant K1 (resistant to CQ, quinine, pyrimethamine, and cycloguanil), and W2 (resistant to CQ, quinine, pyrimethamine, and cycloguanil) strains was evaluated. […]

[9] = test system: immature stage II-III P. falciparum NF54 gametocytes; assay: Luciferase reporter gametocytocidal assay, immature gametocytes; type: cell-based, Plasmodium falciparum; settings: this study
Protocol: as §1
Untreated and 5 μM MB-treated immature and late-stage gametocytes were included as positive and negative controls. MB and artemisone were included as internal reference standards. In all cases, an interference assay to eliminate false positives from possible compound interference with the luciferase readout was run in parallel. […]
as §2

[10] = test system: asexual blood stage P. falciparum W2 (multidrug resistant); assay: SYBR Green I proliferation assay, asexual blood stage Pf W2; type: cell-based, Plasmodium falciparum
Protocol: as §1, §3

[11] = immature vs late stage gametocytes

| SMILES | IC50 ([1]; asexual blood stage, SYBR Green I, mean ± SEM) | RI (resistance index) = IC50 K1/IC50 NF54 [1] | IC50 ([2]; NF54 gametocytes, luciferase, 48 h, mean ± SEM, read-out: Immature stage II-III (luc 48 h) IC50) | Fold change preference ratio EG to LG [2, 11] | IC50 [3] | IC50 (tumour cell lines) | IC50 (A375 melanoma cells) | IC50 [4] | IC50 [5] | IC50 ([6]; NF54, abstract, read-out: IC50 late stage Pf NF54 gametocytes) | IC50 ([6]; NF54 gametocytes, luciferase, 72 h, mean ± SEM, this study, read-out: Late stage IV-V (luc 72 h) IC50) | Fold change preference ratio LG to EG ([6]; this study) | Fold change preference ratio LG to EG ([6]; this study, listed as celastrol) | IC50 [7] | IC50 ([8]; Plasmodium falciparum, K1, 96 h, read-out: IC50 K1) | RI (resistance index) = IC50 K1/IC50 NF54 ([8]; this study) | IC50 ([9]; Plasmodium falciparum, NF54 gametocytes, luciferase, 48 h, mean ± SEM, read-out: Immature stage II-III (luc 48 h) IC50) | Fold change preference ratio EG to LG [9, 11] | IC50 ([10]; Plasmodium falciparum, W2, 96 h, read-out: IC50 W2) | RI = IC50 W2/IC50 NF54 ([10]; this study) |
| --- | --- | --- | --- | --- | --- | --- | --- | --- | --- | --- | --- | --- | --- | --- | --- | --- | --- | --- | --- | --- |
| C[C@H]1[C@H](N2CCS(=O)(=O)CC2)O[C@@H]2O[C@@]3(C)CC[C@H]4[C@H](C)CC[C@@H]1[C@@]24OO3 [Artemisone, artemisone] | 1.01 ± 0.19 nM | 0.85 ^f | 1.94 ± 0.11 nM | 21.9 | 1.2 nM | 260 to 95700 nM | 95700 nM | – | – | – | – | – | – | – | – | – | – | – | – | – |
| CC1=C(O)C(=O)C=C2C1=CC=C1[C@@]2(C)CC[C@@]2(C)[C@@H]3C[C@](C)(C(=O)O)CC[C@]3(C)CC[C@]12C [Celastrol, celastrol] | – | – | – | – | – | – | – | 401 nM | 500 to 820 nM | 280 nM | 282 ± 96.2 nM | 4.1 | approximately 4 | 564 nM | 700 ± 100 nM | 0.85 | 1160 nM | 0.2 | 500 ± 100 nM | 0.61 |
